21 molecules from PubChem BioAssay (NCI) can be followed below.

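Interpolation was linear, between the two tested concentrations surrounding the appropriate level; five concentrations were tested over 48 hours in 96-well plates. Abbreviation: GI50, concentration required for 50% inhibition of growth. TGI is the concentration that stops growth completely.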

Assay in all cases: DTP human tumour cell line panel, 48 h
Assay [1] relates to IGROV1 ovarian.
Assay [2] relates to OVCAR-4 ovarian.
Assay [3] has as its system SNB-19 CNS.
The subject of assay [4] is UO-31 renal.
Assay [5] concerns NCI-H522 lung.
Assay [6] has as its system SK-MEL-2 melanoma.
Assay [7] deals with U251 CNS.
For assay [8], the system named is NCI-H23 lung.
Assay [9] relates to HT29 colon.
In assay [10] the test system is SF-539 CNS.
Assay [11] has as its system OVCAR-3 ovarian.
Assay [12] relates to A498 renal.
In assay [13] the test system is HOP-92 NSCLC.
The subject of assay [14] is SK-OV-3 ovarian.
Assay [15] has as its system T-47D breast.
Assay [16] has as its system DU-145 prostate.

Consider `Cc1ccc(S(=O)(=O)c2ccc(C)cc2[N+](=O)[O-])c([N+](=O)[O-])c1`, for which the concentration for total growth inhibition (TGI) in assay [1], in [2], in assay [3], in assay [4], in assay [5] and in assay [6] was above 100 µM in each case. Further, the TGI in [7], in assay [8], in [9], in assay [10] and in assay [11] was above 100 µM throughout.

For `O=C1CCC(=O)c2ccccc2N1`, the TGI in [1], in assay [2], in assay [3], in assay [12], in assay [4] and in assay [5] was above 100 µM in each case. The concentration for total growth inhibition (TGI) in assay [6], in assay [7], in assay [13], in assay [14], in assay [8] and in assay [9] was above 100 µM in each case. Further, the total growth inhibition concentration (TGI) in [10] and in [11] was above 100 µM throughout.

For the molecule `N#CCCC(C#N)(C#N)CCC#N`, the concentration for total growth inhibition (TGI) in assay [1], in assay [3], in assay [4], in assay [5], in assay [7] and in assay [14] was above 100 µM throughout. Besides, the total growth inhibition concentration (TGI) in [8], in assay [9], in assay [10] and in [11] was above 100 µM throughout.

As for `COP12(OC)NC(=O)OC1(C(F)(F)F)c1ccccc1O2` (stereo unspecified), the TGI in assay [1], in assay [2], in [3], in [5], in assay [6] and in assay [14] was above 100 µM each time. Also, the TGI in assay [8], in [9], in [10] and in assay [11] was above 100 µM throughout.

In the case of `CN1N=C(c2ccncc2)OC1c1cccc(F)c1` (stereo unspecified), the TGI in assay [1], in assay [15], in assay [2], in assay [3], in assay [16] and in [12] was above 100 µM throughout. The TGI in [4], in assay [5], in assay [6], in assay [7], in [14] and in assay [8] was above 100 µM in each case. Besides, the TGI in [9], in [10] and in [11] was above 100 µM each time.

Take `CN(C)CC1(Cc2ccccc2)CC/C(=C\c2ccccc2)C1=O` (stereo unspecified): the TGI in assay [1] is above 100 µM; in assay [2], above 100 µM; in assay [3], 63.3 µM; in [12], above 100 µM; in [4], above 100 µM; in assay [5], 30.1 µM. Further, the TGI in [6] was above 100 µM; in [7] it was above 100 µM; in [13] it was above 100 µM; in assay [8], above 100 µM; in assay [9], 52.6 µM; in assay [10] it was 60.3 µM. This molecule had a total growth inhibition concentration (TGI) in assay [11] above 100 µM.

Consider `CCOC(=O)/C(C1=NCCN1C)=C(\O)c1ccccc1`, for which the concentration for total growth inhibition (TGI) in [1], in assay [2], in [3], in assay [4], in [5] and in [6] was above 100 µM in each case. Further, the concentration for total growth inhibition (TGI) in assay [7], in [8], in assay [9] and in [11] was above 100 µM in each case.

Regarding `O=c1[nH]c(=O)n([C@H]2C[C@@H](CO)[C@@H](O)C2)cc1I`, the concentration for total growth inhibition (TGI) in [1], in assay [2], in assay [3], in assay [12], in assay [4] and in assay [5] was above 100 µM each time. In addition, the TGI in assay [6], in [7], in [13], in [14], in [8] and in assay [9] was above 100 µM each time. Also, the TGI in assay [10] and in [11] was above 100 µM in each case.

`CC(C)CCNC(=O)c1ccc(CNC(=O)/C=C/c2ccc3ccccc3c2)cc1`: the TGI in assay [15], in [2], in assay [3], in assay [16], in assay [12] and in assay [4] was above 100 µM each time. Also, the TGI in assay [6], in assay [7], in assay [13], in assay [14], in assay [8] and in assay [11] was above 100 µM in each case.

`COc1ccc2c(O)c1-c1c(OC)ccc(c1O)SSc1ccc(OC)c(c1O)-c1c(OC)ccc(c1O)SS2`: the TGI in [1] was above 100 µM; in assay [15], 62.9 µM; in assay [2] it was 69.8 µM; in assay [3], above 100 µM; in assay [16], above 100 µM; in assay [12], above 100 µM. In addition, the concentration for total growth inhibition (TGI) is 14 µM in assay [4]; 15.5 µM in assay [5]; above 100 µM in [6]; 69 µM in assay [7]; 90.1 µM in assay [13]; above 100 µM in assay [14]. Moreover, the TGI in assay [9] was above 100 µM; in assay [10] it was 69.1 µM; in assay [11], above 100 µM.

Regarding `C/C=C1\Oc2ccc(OC)cc2S1(=O)=O`, the TGI in [1], in [2], in [3], in [12], in assay [4] and in [5] was above 100 µM each time. The TGI in assay [6], in assay [7], in assay [13], in assay [14], in assay [8] and in assay [9] was above 100 µM in each case. In addition, the TGI in assay [11] is above 100 µM.

On to `O=c1cccccc1[O-].O=c1cccccc1[O-].O=c1cccccc1[O-].[Nd+3]`, for which the total growth inhibition concentration (TGI) was above 100 µM in assay [1]; above 100 µM in [2]; above 100 µM in assay [3]; above 100 µM in assay [12]; above 100 µM in assay [4]; 74.4 µM in assay [5]. Also, the total growth inhibition concentration (TGI) in assay [6] was 97.3 µM; in assay [7] it was above 100 µM; in assay [13], above 100 µM; in assay [14], above 100 µM; in assay [8], above 100 µM; in assay [9], above 100 µM. In addition, the total growth inhibition concentration (TGI) in assay [10] came to 74.9 µM; in [11], 38.2 µM. The GI50 in [12] is 81.4 µM; in [7] it was 38.7 µM; in assay [10], 19.7 µM.

As for `c1cc2c(cc1C1OCC3C(c4ccc5c(c4)OCO5)OCC13)OCO2` (stereo unspecified), the total growth inhibition concentration (TGI) in [1], in [2], in assay [3], in assay [12], in [4] and in [5] was above 100 µM throughout. The total growth inhibition concentration (TGI) in [6], in assay [7], in assay [13], in assay [14], in assay [8] and in [9] was above 100 µM throughout. Also, the TGI in assay [10] and in [11] was above 100 µM in each case.

Take `N#Cc1c(-c2ccccc2)cn(C(=O)c2ccccc2)c1N`: the total growth inhibition concentration (TGI) in [1], in [2], in [3], in assay [16], in assay [4] and in assay [5] was above 100 µM in each case. Moreover, the TGI in assay [6], in assay [7], in [13], in assay [14], in assay [8] and in assay [9] was above 100 µM each time. For the same molecule, the total growth inhibition concentration (TGI) in assay [11] is above 100 µM.

For the molecule `CCOC(=O)c1ccc(N=C2Sc3nc4ccccc4n3C2=Nc2ccc(C(=O)OCC)cc2)cc1`, the concentration for total growth inhibition (TGI) in [1] is 60.4 µM; in assay [15] it was above 100 µM; in [2], 81.5 µM; in assay [3] it was 25.2 µM; in [16] it was above 100 µM; in assay [12] it was 81.4 µM. Also, the TGI was above 100 µM in assay [5]; 91.5 µM in assay [6]; 35.9 µM in [13]; above 100 µM in assay [14]; 83.8 µM in assay [8]; above 100 µM in assay [9]. In addition, the figures for the TGI in assay [10] and in assay [11] were 41.6 µM and 53.4 µM, respectively.

For `C#CN1C(=O)c2c(c(-c3ccccc3)c(-c3ccc(Oc4ccc(-c5c(-c6ccccc6)c6c(c(-c7ccccc7)c5-c5ccccc5)C(=O)N(C#C)C6=O)cc4)cc3)c(-c3ccccc3)c2-c2ccccc2)C1=O`, the TGI in [1], in [2], in [3], in [4], in [5] and in [6] was above 100 µM each time. Besides, the concentration for total growth inhibition (TGI) in assay [7], in assay [13], in assay [8], in assay [9], in assay [10] and in assay [11] was above 100 µM in each case.

As to `COc1cc(C2C(C(=O)NCc3ccccc3)=C(C)NC(C)=C2C(=O)NCc2ccccc2)ccc1O`, the TGI was above 100 µM in assay [1]; above 100 µM in assay [2]; above 100 µM in [3]; above 100 µM in [12]; above 100 µM in [4]; 61.2 µM in assay [6]. Besides, the TGI in assay [7] was 83.2 µM; in [13], 89.2 µM; in assay [8], 90.5 µM; in assay [9], 38 µM; in assay [10], 41 µM; in assay [11], above 100 µM.

`COC(=O)C(=O)C(C(=O)OC)C(=O)C(=O)Nc1cc(Cl)c(C)cc1S(=O)(=O)O` (stereo unspecified): the concentration for total growth inhibition (TGI) in [1], in assay [2], in assay [3], in [12], in assay [4] and in assay [5] was above 100 µM throughout. The TGI in assay [6], in assay [7], in assay [14], in assay [8], in assay [9] and in [10] was above 100 µM in each case. This molecule came in with a TGI in [11] above 100 µM.

Turning to `O=C1C(Cl)C(c2ccc(O)cc2)N1n1cnc2ccccc2c1=O` (stereo unspecified), the TGI in [1] is above 100 µM; in assay [2], above 94 µM; in [3], above 100 µM; in [12], above 100 µM; in [4], above 100 µM; in assay [5] it was 32.6 µM. Further, the total growth inhibition concentration (TGI) was above 63.8 µM in assay [6]; above 100 µM in assay [7]; above 100 µM in [13]; above 100 µM in [14]; above 96.3 µM in [8]; above 68.8 µM in assay [9]. Also, the TGI in assay [10] is above 100 µM; in [11], above 90.1 µM.

As for `CN1CCCS/C1=C1/SC(=S)N(c2ccccc2)C1=O`, the TGI in assay [1], in [2], in [3], in [12], in [4] and in assay [5] was above 100 µM throughout. Besides, the TGI in assay [6], in [7], in assay [13], in assay [14], in assay [8] and in [9] was above 100 µM throughout. Moreover, the total growth inhibition concentration (TGI) in assay [10] and in assay [11] was above 100 µM each time.

In the case of `O=C(O)C12C3CCC(C3)C1(C(=O)O)C1CCC2C1` (stereo unspecified), the TGI in assay [1] is above 100 µM; in assay [3] it was above 100 µM; in assay [12], above 100 µM; in [4] it was above 100 µM; in assay [5], 54.9 µM; in assay [6] it was above 100 µM. Besides, the TGI in assay [13], in assay [14], in assay [8], in assay [9] and in [11] was above 100 µM each time.

The term TGI denotes the concentration giving total growth inhibition. Low values mean more potent growth arrest, high ones less potent growth arrest. Usually GI50 stands for the concentration giving 50% growth inhibition.
